Test results as given in patent US10208071B2, “Use of agonists of formyl peptide receptor 2 for treating ocular inflammatory diseases” (Allergan, Inc., priority 2013, dated 2019).

What was measured:
FPR2 [1] = molecular target: T1, FPR2 (Homo sapiens (Human), UniProt P25090); assay: FPR2 Ga16-CHO EC50 (efficacy), Tables 1-3; assay type: cell-based; details: for FPR2 Ga16-CHO (efficacy): efficacy in parentheses
FPR2 [2] = molecular target: T1, FPR2; assay: FLIPR Ca+2 response, HEK-Gα16 cells stably expressing the human FPR2 receptor (Table 4); assay type: cell-based; details: for FPR2 (efficacy): efficacy in parentheses
In short: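 HEK-Gα16 cells stably expressing human FPR2, loaded with 2 μM Fluo-4 in HBSS/20 mM HEPES for 40 min at 37° C., then washed. Ligands added in HBSS/Hepes and Ca+2 responses recorded on FLIPR in relative fluorescence units.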

T1 sequence (P25090 whole entry): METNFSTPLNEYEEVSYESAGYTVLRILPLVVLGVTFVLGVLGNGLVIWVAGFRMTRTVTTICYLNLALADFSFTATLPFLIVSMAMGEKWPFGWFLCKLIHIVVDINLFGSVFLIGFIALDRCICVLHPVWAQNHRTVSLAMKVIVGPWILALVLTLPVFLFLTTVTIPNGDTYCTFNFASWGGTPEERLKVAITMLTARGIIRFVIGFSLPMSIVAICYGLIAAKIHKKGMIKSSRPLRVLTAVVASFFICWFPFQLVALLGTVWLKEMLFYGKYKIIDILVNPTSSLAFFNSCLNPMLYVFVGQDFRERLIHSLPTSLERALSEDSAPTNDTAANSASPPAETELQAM

Structure (SMILES) | EC50 (FPR2 [1]) | FPR2 Ga16-CHO (efficacy) (FPR2 [1]) | EC50 (FPR2 [2]) | FPR2 (efficacy) (FPR2 [2])
CC1(CCc2ccccc2)NC(=O)N(NC(=O)Nc2ccccc2F)C1=O (centres unmarked) [1-(2-fluorophenyl)-3-[4-methyl-2,5-dioxo-4-(2-phenylethyl)imidazolidin-1-yl]urea] | 258 nM | nM (0.94) |  | 
O=C(Nc1ccc(Cl)cc1)NN1C(=O)NC2(CCCCC2)C1=O [1-(4-chlorophenyl)-3-(2,4-dioxo-1,3-diazaspiro[4,5]decan-3-yl) urea] | 49 nM | nM (0.98) |  | 
CCC1(C)NC(=O)N(NC(=O)Nc2ccc(Cl)cc2)C1=O (centres unmarked) [1-(4-chlorophenyl)-3-(4-ethyl-4-methyl-2,5-dioxoimidazolidin-1-yl)urea] | 157 nM | nM (0.96) |  | 
Cc1ccc(NC(=O)NN2C(=O)NC3(CCC(C)CC3)C2=O)cc1 (centres unmarked) [1-(8-methyl-2,4-dioxo-1,3-diazaspiro[4,5]decan-3-yl)-3-(p-tolypurea] | 363 nM | nM (0.91) |  | 
CC1(CCc2ccccc2)NC(=O)N(NC(=O)Nc2ccccc2)C1=O (centres unmarked) [1-[4-methyl-2,5-dioxo-4-(2-phenylethyl)imidazolidin-1-yl]-3-phenylurea] | 223 nM | nM (1.0) |  | 
CCC1(CC)NC(=O)N(CC(=O)Nc2ccc(F)cc2)C1=O [2-(4,4-diethyl-2,5-dioxoimidazolidin-1-yl)-N-(4-fluorophenyl)acetamide] | 2770 nM | nM (0.67) |  | 
COc1ccc(NC(=O)NC(Cc2ccccc2)C(=O)O)cc1OC (centres unmarked) [2-({[(3,4-dimethoxyphenyl)amino]carbonyl}amino)-3-phenylpropanoic acid] | 2790 nM | nM (0.72) |  | 
O=C(Nc1ccc(Br)cc1)NC(Cc1c[nH]c2ccccc12)C(=O)O (centres unmarked) [2-({[(4-bromophenyl)amino]carbonyl}amino)-3-(1H-indol-3-yl)propanoic acid] | 67 nM | nM (0.89) |  | 
O=C(Nc1ccc(Cl)cc1)NC(Cc1ccccc1)C(=O)O (centres unmarked) [2-({[(4-chlorophenyl)amino]carbonyl}amino)-3-phenylpropanoic acid] | 110 nM | nM (1.0) |  | 
O=C(Nc1ccc(OC(F)(F)F)cc1)NC(Cc1ccccc1)C(=O)O (centres unmarked) [3-phenyl-2-[({[4-(trifluoromethoxy)phenyl]amino}carbonyl)amino]propanoic acid] | 1570 nM | nM (0.79) |  | 
O=C(Nc1cccnc1)NC(Cc1ccccc1)C(=O)O (centres unmarked) [3-phenyl-2-{[(pyridin-3-ylamino)carbonyl]amino}propanoic acid] | > 10000 nM |  |  | 
O=C(Nc1ccc(Br)cc1)N[C@H](Cc1ccccc1)C(=O)O [(2R)-2-({[(4-bromophenyl)amino]carbonyl}amino)-3-phenylpropanoic acid] | 1820 nM | nM (0.99) |  | 
O=C(Nc1ccc(Cl)c(Cl)c1)N[C@@H](Cc1ccccc1)C(=O)O [(2S)-2-({[(3,4-dichlorophenyl)amino]carbonyl}amino)-3-phenylpropanoic acid] |  | μM (0.57) |  | 
CC(C)[C@H](NC(=O)Nc1ccc(Br)cc1F)C(=O)O [(2S)-2-({[(4-bromo-2-fluorophenyl)amino]carbonyl}amino)-3-methylbutanoic acid] | 152 nM | nM (0.91) |  | 
CC(C)[C@H](NC(=O)Nc1ccc(Br)cc1)C(=O)O [(2S)-2-({[(4-bromophenyl)amino]carbonyl}amino)-3-methylbutanoic acid] | 72 nM | nM (0.91) |  | 
O=C(Nc1ccc(Br)cc1)N[C@@H](Cc1ccccc1)C(=O)O [(2S)-2-({[(4-bromophenyl)amino]carbonyl}amino)-3-phenylpropanoic acid] | 31 nM | nM (1.0) |  | 
COc1ccc(NC(=O)N[C@@H](Cc2ccccc2)C(=O)O)cc1 [(2S)-2-({[(4-methoxyphenyl)amino]carbonyl}amino)-3-phenylpropanoic acid] | 1750 nM | nM (0.90) |  | 
O=C(Nc1ccc([N+](=O)[O-])cc1)N[C@@H](Cc1ccccc1)C(=O)O [(2S)-2-({[(4-nitrophenyl)amino]carbonyl}amino)-3-phenylpropanoic acid] |  | nM (0.82) |  | 
O=C(Nc1ccc(C(F)(F)F)cc1)N[C@@H](Cc1ccccc1)C(=O)O [(2S)-3-phenyl-2-[({[4-(trifluoromethyl)phenyl]amino}carbonyl)amino]propanoic acid] | 120 nM | nM (0.97) |  | 
O=C(Nc1ccc(Br)cc1)N[C@H](C(=O)O)c1ccccc1 [(2S)-({[(4-bromophenyl)amino]carbonyl}amino) (phenyl)acetic acid] | 25.8 nM | nM (0.94) |  | 
CCOP(=O)(CCNC(=O)CC1(C(C)C)NC(=O)N(NC(=O)Nc2ccc(Br)cc2)C1=O)OCC (centres unmarked) [Compound 152, diethyl [2-({[1-{[(4-bromophenyl)carbamoyl]amino}-2,5-dioxo-4-(propan-2-yl)imidazolidin-4-yl]acetyl}amino)ethyl] phosphonate] |  |  | 11 nM | nM (1.0)

Next, values leading:

EC50 (FPR2 [1]) | FPR2 Ga16-CHO (efficacy) (FPR2 [1]) | EC50 (FPR2 [2]) | FPR2 (efficacy) (FPR2 [2]) | Structure (SMILES)
 |  | 6.3 nM | nM (0.91) | CSCC[C@H](NC(=O)Nc1ccc(Br)cc1)C(=O)NCC(=O)O [Compound 144, {[(2S)-2-{[(4-bromophenyl)carbamoyl]amino}-4-(methylsulfanyl)butanoyl]amino} acetic acid]
 |  | 1 nM | nM (1.0) | CC(C)C1(CC(=O)NCCC(=O)O)NC(=O)N(NC(=O)Nc2ccc(Br)cc2F)C1=O (centres unmarked) [Compound 145, 3-({[-{[(4-bromo-2-fluorophenyl)carbamoyl]amino}-2,5-dioxo-4-(propan-2-yl)imidazolidin-4-yl]acetyl}amino)propanoic acid]
 |  | 11.1 nM | nM (1.0) | CCC1(CCc2ccccc2C(=O)O)NC(=O)N(NC(=O)Nc2ccc(Br)cc2F)C1=O (centres unmarked) [Compound 146, 2-[2-(1-{[(4-bromo-2-fluorophenyl)carbamoyl]amino}-4-ethyl-2,5-dioxoimidazolidin-4-yl)ethyl]benzoic acid]
 |  | 3.9 nM | nM (0.99) | CC(C)C1(CC(=O)NCCC(=O)O)NC(=O)N(NC(=O)Nc2ccc(Br)cc2)C1=O (centres unmarked) [Compound 147, 3-({[1-{[(4-bromophenyl)carbamoyl]amino}-2,5-dioxo-4-(propan-2-yl)imidazolidin-4-yl]acetyl}amino)propanoic acid]
 |  | 6.9 nM | nM (0.98) | CC(C)C1(CC(=O)NCCO)NC(=O)N(NC(=O)Nc2ccc(Br)cc2F)C1=O (centres unmarked) [Compound 148, 2-[1-{[(4-bromo-2-fluorophenyl)carbamoyl]amino}-2,5-dioxo-4-(propan-2-yl)imidazolidin-4-yl]-N-(2-hydroxyethyl)acetamide]
 |  | 6.6 nM | nM (0.94) | CCOC(=O)CCC1(C(C)C)NC(=O)N(NC(=O)Nc2ccc(Br)cc2)C1=O (centres unmarked) [Compound 149, ethyl 3-[1-{[(4-bromophenyl)carbamoyl]amino}-2,5-dioxo-4-(propan-2-yl)imidazolidin-4-yl]propanoate]
 |  | 1.4 nM | nM (0.98) | O=C(O)CNC(=O)C(Cc1c[nH]c2ccccc12)NC(=O)Nc1ccc(Br)cc1 (centres unmarked) [Compound 150, {[2-{[(4-bromophenyl)carbamoyl]amino}-3-(1H-indol-3-yl)propanoyl]amino}acetic acid]
 |  | 5.8 nM | nM (1.0) | CC(C)C1(CCc2ccccc2C(=O)O)NC(=O)N(NC(=O)Nc2ccc(Br)cc2)C1=O (centres unmarked) [Compound 151, 2-{2-[1-{[(4-bromophenyl)carbamoyl]amino}-2,5-dioxo-4-(propan-2-yl)imidazolidin-4-yl]ethyl}benzoic acid]
 |  | 12 nM | nM (0.99) | CCOC(=O)C1CCC2(CC1)NC(=O)N(NC(=O)Nc1ccc(Br)cc1)C2=O (centres unmarked) [Compound 153, ethyl 3-{[(4-bromophenyl)carbamoyl]amino}-2,4-dioxo-1,3-diazaspiro[4.5]decane-8-carboxylate]
 |  | 12 nM | nM (0.85) | CC(C)C[C@H](NC(=O)Nc1ccc(Br)cc1)C(=O)N(C)CC(=O)OC(C)(C)C [Compound 154, tert-butyl {[(2S)-2-{[(4-bromophenyl)carbamoyl]amino}-4-methylpentanoyl](methyl)amino} acetate]
 |  | 1 nM | nM (1.0) | CC(C)C[C@H](NC(=O)Nc1ccc(Br)cc1)C(=O)N(C)CC(=O)O [Compound 155, {[(2S)-2-{[(4-bromophenyl)carbamoyl]amino}-4-methylpentanoyl](methyl)amino} acetic acid]
 |  | 1.9 nM | nM (0.99) | CC(C)C[C@H](NC(=O)Nc1ccc(C(F)(F)F)cc1)C(=O)NCS(=O)(=O)O [Compound 237, {[(2S)-4-methyl-2-({[4-(trifluoromethyl)phenyl]carbamoyl}amino)pentanoyl]amino} methanesulfonic acid]
 | (0.98) |  |  | O=C(CN1C(=O)C2CC=CCC2C1=O)Nc1ccc(Br)cc1 (centres unmarked) [N-(4-bromophenyl)-1,3,3a,4,7,7a-hexahydro-1,3-dioxo-2H-isoindole-2-acetamide]
 | (0.90) |  |  | O=C(CN1C(=O)C2C3C=CC(C3)C2C1=O)Nc1ccc(Br)cc1 (centres unmarked) [N-(4-bromophenyl)-1,3,3a,4,7,7a-hexahydro-1,3-dioxo-4,7-methano-2H-isoindole-2-acetamide]
322 nM | nM (0.96) |  |  | O=C(CN1C(=O)NC2(CCCC2)C1=O)Nc1ccc(Br)cc1 [N-(4-bromophenyl)-2-(2,4-dioxo-1,3-diazaspiro[4.4]non-3-yl)acetamide]
738 nM | nM (0.89) |  |  | O=C(CN1C(=O)NC2(CCCCC2)C1=O)Nc1ccc(Br)cc1 [N-(4-bromophenyl)-2-(2,4-dioxo-1,3-diazaspiro[4.5]dec-3-yl)acetamide]
679 nM | nM (0.96) |  |  | O=C(CN1C(=O)NC2(CCCCCC2)C1=O)Nc1ccc(Br)cc1 [N-(4-bromophenyl)-2-(2,4-dioxo-1,3-diazaspiro[4.6]undec-3-yl)acetamide]
